The values that follow come from article PMC11511194, “Key Factors for Improving Predictive Accuracy and Avoiding Overparameterization of the PBPK Absorption Model in Food Effect Studies of Weakly Basic Water-Insoluble Compounds in Immediate Release Formulations” (Pharmaceutics, 2024).

≈ marks a conversion by molar mass, not a printed value. Read-outs that look alike come from different tables or passages of the source.

Data set [1] in a line: Equilibrium solubility of APIs in aqueous and biorelevant media. In kind it is physicochemical. The conditions noted are these: 37 °C. The method, then:
To evaluate the effect of pH and bile salt concentration within the physiological range on the solubility of APIs, the equilibrium solubility of APIs in various aqueous and biorelevant media was comprehensively investigated. Specifically, aqueous buffers, including pH 1.0 and pH 2.0 HCl solutions; pH 3.0 and pH 4.5 acetum; and pH 5.0, pH 6.5, and pH 8.0 phosphate buffer solutions (PBS), were prepared according to the guidelines outlined in the Chinese Pharmacopoeia. Additionally, biorelevant media such as FaSSGF, FaSSIF, and FeSSIF were prepared following the prescribed method for biorelevant power. An excess amount of solid drug powder was added to vials containing 20 mL of the corresponding medium, and tests were conducted with continuous stirring at 37 °C for 24 h. Drug concentration was detected every minute through an in situ fiber-optic UV dissolution real-time monitoring system (Pion Scientific Instruments, Billerica, MA, USA). All measurements were performed in triplicate.

The next data set concerns Caco-2. The conditions noted are these: Apical pH : Basolateral pH 7.4 : 7.4, Passive&Active, cited from earlier work.
The conditions of data set [2]: cited from earlier work.
Data set [3] is described as follows: Two-stage biorelevant dissolution (transfer test FaSSGF to FaSSIF). In kind it is physicochemical. The conditions noted are these: formulation, gastric to intestinal chamber in vitro. Here is the method:
Because the solubility of weakly basic water-insoluble compounds is higher in the acidic gastric environment compared to the near-neutral intestinal environment, and that bile salts can enhance the solubility of poorly soluble drugs in the intestine, a two-stage dissolution test was performed to explore the drug transfer process from the stomach to the intestine. The transfer apparatus comprised two USP 2 vessels representing the gastric and intestinal chambers, which are interconnected via a peristaltic pump to simulate first-order gastric emptying dynamics. […] Additional samples in the two-stage dissolution test were analyzed every minute with the same instrument. […]
Precipitation parameters, such as critical supersaturation ratio (CSC) and precipitation rate constant (PRC), were evaluated when precipitation occurs in the neutral intestinal environment after the mixture of solution and undissolved substance is transferred from the gastric chamber in vitro. These parameters were evaluated by fitting the two-stage dissolution profile according to the crystallization kinetics equations [28, 29, 30]. […] The calibrated permeability of drugs, as determined using the Caco-2 Transwell model, was used to represent the permeability of drugs in vivo [31]. […]

[4] abbreviates: HCl solution, simulated gastric fluid, thermodynamic from solid, pH 1.0 HCl.
[5] abbreviates: HCl solution, simulated gastric fluid, thermodynamic from solid, pH 2.0 HCl.
Setting [6] is: aqueous buffer, thermodynamic from solid, pH 3.0 Acetic acid buffer.
Where [7] appears, read: aqueous buffer, thermodynamic from solid, pH 4.5 Acetic acid buffer.
[8] abbreviates: phosphate buffer solution (PBS), aqueous buffer, thermodynamic from solid, pH 5.0 PBS.
Setting [9] is: phosphate buffer solution (PBS), pH 6.5 PBS.
Setting [10] is: phosphate buffer solution (PBS), pH 8.0 PBS.
Where [11] appears, read: thermodynamic from solid, pH 5.0 FeSSIF.
[12] abbreviates: thermodynamic from solid, pH 6.5 FaSSIF.

A word on the solubility (thermodynamic): it is solubility found after equilibrating the solid with the medium. Regarding `O=C(NC[C@H]1CN(c2ccc(N3CCOCC3=O)cc2)C(=O)O1)c1ccc(Cl)s1` [Rivaroxaban], the solubility (thermodynamic) at 24 h in data set [1] (setting [4]) was 6.84 µg/mL (≈ 15.7 µM); in data set [1] (setting [5]), 8.18 µg/mL (≈ 18.8 µM); in data set [1] (setting [6]) it was 10.6 µg/mL (≈ 24.3 µM); in data set [1] (setting [7]) it was 6.55 µg/mL (≈ 15 µM); in data set [1] (pH 1.6 FaSSGF), 7.5 µg/mL (≈ 17.2 µM); in data set [1] (setting [8]) it was 4.85 µg/mL (≈ 11.1 µM). Besides, the solubility (thermodynamic) at 24 h was 5.84 µg/mL (≈ 13.4 µM) in data set [1] (setting [9]), 5.87 µg/mL (≈ 13.5 µM) in data set [1] (setting [10]), 10.6 µg/mL (≈ 24.3 µM) in data set [1] (setting [11]) and 6.17 µg/mL (≈ 14.2 µM) in data set [1] (setting [12]). The Caco-2 permeability in the data set on Caco-2 (supplement ref 4) is listed as 8.103 10-6cm/s. Moreover, the “Fraction unbound in plasma” value in data set [2] (rivaroxaban, supplement ref 2) is on record as 0.065. Further, the Blood-to-plasma partition ratio in data set [2] (rivaroxaban, supplement ref 7) is 0.714. In addition, the “behaviour after transfer from FaSSGF to FaSSIF” value in data set [3] was “continued to dissolve”.

`CCCSc1nc(N[C@@H]2C[C@H]2c2ccc(F)c(F)c2)c2nnn([C@@H]3C[C@H](OCCO)[C@@H](O)[C@H]3O)c2n1` [Ticagrelor]: the thermodynamic solubility at 24 h in data set [1] (setting [4]) is 18 µg/mL (≈ 34.4 µM); in data set [1] (setting [5]), 8.04 µg/mL (≈ 15.4 µM); in data set [1] (setting [6]), 11.6 µg/mL (≈ 22.2 µM); in data set [1] (setting [7]), 7.47 µg/mL (≈ 14.3 µM); in data set [1] (pH 1.6 FaSSGF), 14.2 µg/mL (≈ 27.2 µM); in data set [1] (setting [8]) it was 6.35 µg/mL (≈ 12.2 µM). The thermodynamic solubility at 24 h in data set [1] (setting [9]) turned out to be 5.97 µg/mL (≈ 11.4 µM); in data set [1] (setting [10]), 5.52 µg/mL (≈ 10.6 µM); in data set [1] (setting [11]), 4050 µg/mL (≈ 7750 µM); in data set [1] (setting [12]), 306 µg/mL (≈ 586 µM). Moreover, the Caco-2 permeability with Caco-2 (supplement ref 19) is listed as 6.0 10-6cm/s. Also, in data set [2] (ticagrelor, supplement ref 18), the Blood-to-plasma partition ratio is 0.592. The “Fraction unbound in plasma” value in data set [2] (ticagrelor, supplement ref 18) is recorded as 0.006. In addition, the “behaviour after transfer from FaSSGF to FaSSIF” value in data set [3] is reported as “continued to dissolve”.
